In the supplement of paper PMC11061612:

Tests used:
[1] = tested on: BT-20 (Breast Carcinoma); test: Bliss excess, mean over the matrix (fraction); higher = more synergy
How it was run: (§1)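 Bliss excess equals the observed combination effect minus the expected value EA + EB − EA·EB, where EA and EB are the effects of each agent alone. Combination Emax is the second-highest inhibition within the matrix. Inhibition was scaled from CellTiter-Glo 2.0 luminescence, with 0 set by vehicle wells and 1 by blank wells, after 72 hours of two-drug dosing of cells plated in 1536-well plates.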

[2] = tested on: NCI-H1573 (Lung Adenocarcinoma); test: as above
How it was run: as §1

[3] = tested on: DG-75 (Burkitt's Lymphoma); test: as above
How it was run: as §1

[4] = tested on: KYSE-50 (Esophageal Squamous Cell Carcinoma); test: as above
How it was run: as §1

[5] = tested on: JHH-7 (Hepatocellular Carcinoma); test: as above
How it was run: as §1

[6] = tested on: VMRC-LCD (Lung Adenocarcinoma); test: as above
How it was run: as §1

[7] = tested on: KP-2 (Pancreatic Carcinoma); test: as above
How it was run: as §1

[8] = tested on: NCI-H322M (Lung Adenocarcinoma); test: as above
How it was run: as §1

[9] = tested on: HSC-2 (Oral Cavity Carcinoma); test: as above
How it was run: as §1

[10] = tested on: NB7 (Neuroblastoma); test: as above
How it was run: as §1

[11] = tested on: OCUB-M (Breast Carcinoma); test: as above
How it was run: as §1

[12] = tested on: H-EMC-SS (Chondrosarcoma); test: as above
How it was run: as §1

[13] = tested on: OCUM-1 (Gastric Carcinoma); test: as above
How it was run: as §1

[14] = tested on: EW-3 (Ewing's Sarcoma); test: as above
How it was run: as §1

[15] = tested on: NCI-H2405 (Lung Adenocarcinoma); test: as above
How it was run: as §1

[16] = tested on: EW-13 (Ewing's Sarcoma); test: as above
How it was run: as §1

[17] = tested on: SNU-C1 (Colorectal Carcinoma); test: as above
How it was run: as §1

[18] = tested on: EMC-BAC-2 (Non-Small Cell Lung Carcinoma); test: as above
How it was run: as §1

[19] = tested on: KYSE-50 (Esophageal Squamous Cell Carcinoma); test: combination Emax (second highest fraction inhibited in the dose matrix, 72 h); higher = more inhibition; extreme values may be limits of the assay
How it was run: as §1

[20] = tested on: NCI-H2405 (Lung Adenocarcinoma); test: as above
How it was run: as §1

CCc1c2c(nc3ccc(O)cc13)-c1cc3c(c(=O)n1C2)COC(=O)[C@]3(O)CC [SN-38] + O=C(c1cc(Cc2n[nH]c(=O)c3ccccc23)ccc1F)N1CCN(C(=O)C2CC2)CC1 [Olaparib] (first compound max 0.3 µM, 7x7, partner max 10 µM)
Bliss excess [1]: 0.107 | Bliss excess [2]: -0.0085 | Bliss excess [3]: 0.0451 | Bliss excess [4]: 0.0126 | Bliss excess [5]: 0.0299 | Bliss excess [6]: -0.0163 | Bliss excess [7]: 0.0564 | Bliss excess [8]: 0.0495 | Bliss excess [9]: 0.102 | Bliss excess [10]: 0.0625 | Bliss excess [11]: 0.15 | Bliss excess [12]: 0.0825 | Bliss excess [13]: 0.014 | Bliss excess [14]: -0.0057 | Bliss excess [15]: 0.0105 | Bliss excess [16]: 0.0804 | Bliss excess [17]: -0.0419 | Bliss excess [18]: 0.0721 | combination Emax [19]: 0.269 | combination Emax [20]: 0.472
